{"source": "patent US9050341B2", "about": "“Methods of treating drug resistant and other tumors by administering 6,7-dialkoxy quinazoline derivatives” (NATCO PHARMA LIMITED, priority 2009, dated 2015)", "assay_in_all_cases": "KinomeScan kinase profiling", "format_in_all_cases": "binding", "key": {"[1]": {"target": "T1, AAK1 (Homo sapiens, UniProt Q2M2I8)", "T1 construct": "host or cells: E. coli host derived from BL21 (T7 phage lysate)", "method_in_brief": "(§1)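 Kinases were expressed as T7 phage fusions in a BL21-derived E. coli host and the cleared lysates were used. Ligand beads were blocked with biotin and buffer (1% BSA, 0.05% Tween 20, 1 mM DTT). Compounds came from 40× DMSO stocks, and phage in the eluates was titred by qPCR.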"}, "[2]": {"target": "T2, ABL1 (H396P) (Homo sapiens, UniProt P00519, H396P)", "T2 construct": "host or cells: E. coli host derived from BL21 (T7 phage lysate)", "method_in_brief": "as §1"}, "[3]": {"target": "T3, ACVR2B (Homo sapiens, UniProt Q13705)", "T3 construct": "host or cells: E. coli host derived from BL21 (T7 phage lysate)", "method_in_brief": "as §1"}, "[4]": {"target": "T4, ANKK1 (Homo sapiens, UniProt Q8NFD2)", "T4 construct": "host or cells: E. coli host derived from BL21 (T7 phage lysate)", "method_in_brief": "as §1"}, "[5]": {"target": "T5, AURKC (Homo sapiens, UniProt Q9UQB9)", "T5 construct": "purchased Ambit Biosciences Corp (KinomeScan); host or cells: E. coli host derived from the BL21 strain, T7 phage", "method_in_brief": "as §1"}, "[6]": {"target": "T6, BMPR2 (Homo sapiens, UniProt Q13873)", "T6 construct": "purchased Ambit Biosciences Corp (KinomeScan); host or cells: E. coli host derived from the BL21 strain, T7 phage", "method_in_brief": "as §1"}, "[7]": {"target": "T7, BRAF (V600E) (Homo sapiens, UniProt P15056, V600E)", "T7 construct": "purchased Ambit Biosciences Corp (KinomeScan); host or cells: E. coli host derived from the BL21 strain, T7 phage", "method_in_brief": "as §1"}, "[8]": {"target": "T8, CLK1 (Homo sapiens, UniProt P49759)", "T8 construct": "host or cells: T7 phage in E. coli (BL21-derived)", "T8 sequence (P49759 whole entry)": "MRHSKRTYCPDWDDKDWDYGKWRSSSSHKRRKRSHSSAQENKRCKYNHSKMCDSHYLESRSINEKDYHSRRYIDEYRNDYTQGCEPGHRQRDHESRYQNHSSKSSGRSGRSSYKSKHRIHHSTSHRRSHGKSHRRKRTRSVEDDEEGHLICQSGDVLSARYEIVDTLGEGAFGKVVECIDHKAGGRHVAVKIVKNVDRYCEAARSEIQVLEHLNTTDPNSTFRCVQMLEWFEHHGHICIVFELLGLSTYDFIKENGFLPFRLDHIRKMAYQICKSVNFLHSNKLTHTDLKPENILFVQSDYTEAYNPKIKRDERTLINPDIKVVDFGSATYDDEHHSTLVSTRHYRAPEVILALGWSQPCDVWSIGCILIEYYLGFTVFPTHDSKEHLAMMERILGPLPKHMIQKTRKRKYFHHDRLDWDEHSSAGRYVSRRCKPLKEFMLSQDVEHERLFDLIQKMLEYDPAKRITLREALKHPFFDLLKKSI", "method_in_brief": "as §1"}, "[9]": {"target": "T9, ERBB2 (Homo sapiens, UniProt P04626)", "T9 construct": "host or cells: E. coli host derived from BL21, T7 phage lysate", "method_in_brief": "as §1"}, "[10]": {"target": "T10, ERK4 (Homo sapiens, UniProt P31152)", "T10 construct": "host or cells: E. coli host derived from BL21, T7 phage lysate", "T10 sequence (P31152 whole entry)": "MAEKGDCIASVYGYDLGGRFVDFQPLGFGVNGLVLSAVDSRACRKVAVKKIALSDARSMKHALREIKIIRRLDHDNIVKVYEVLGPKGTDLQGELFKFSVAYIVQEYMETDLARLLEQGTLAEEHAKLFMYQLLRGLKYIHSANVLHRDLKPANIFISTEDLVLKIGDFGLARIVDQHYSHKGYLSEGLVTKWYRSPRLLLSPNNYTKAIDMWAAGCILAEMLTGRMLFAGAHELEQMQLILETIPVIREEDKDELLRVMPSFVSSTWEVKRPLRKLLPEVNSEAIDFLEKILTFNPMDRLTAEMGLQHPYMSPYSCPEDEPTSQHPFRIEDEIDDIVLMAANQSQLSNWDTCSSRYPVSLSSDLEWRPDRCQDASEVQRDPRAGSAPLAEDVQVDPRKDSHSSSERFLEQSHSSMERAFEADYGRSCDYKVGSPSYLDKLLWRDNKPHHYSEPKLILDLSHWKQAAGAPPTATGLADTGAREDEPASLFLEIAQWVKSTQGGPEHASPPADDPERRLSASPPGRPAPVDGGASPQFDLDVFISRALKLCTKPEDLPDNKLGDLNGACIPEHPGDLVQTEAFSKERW", "method_in_brief": "as §1"}, "[11]": {"target": "T11, GSK3A (Homo sapiens, UniProt P49840)", "T11 construct": "host or cells: E. coli host derived from BL21, infected with T7 phage", "method_in_brief": "as §1"}, "[12]": {"target": "T12, IRAK3 (Homo sapiens, UniProt Q9Y616)", "T12 construct": "host or cells: T7 phage in E. coli host derived from BL21", "method_in_brief": "as §1"}, "[13]": {"target": "T13, JAK1 (JH1domain-catalytic) (Homo sapiens, UniProt P23458)", "T13 construct": "JAK1 (JH1domain-catalytic); host or cells: T7 phage in E. coli host derived from BL21", "method_in_brief": "as §1"}, "[14]": {"target": "T14, MARK4 (Homo sapiens, UniProt Q96L34)", "T14 construct": "host or cells: E. coli derived from BL21, infected with T7 phage", "method_in_brief": "as §1"}, "[15]": {"target": "T15, MINK (Homo sapiens, UniProt Q8N4C8)", "T15 construct": "host or cells: E. coli derived from BL21, infected with T7 phage", "method_in_brief": "as §1"}, "[16]": {"target": "T16, MRCKA (Homo sapiens, UniProt Q5VT25)", "T16 construct": "host or cells: T7 phage in E. coli host derived from BL21", "T16 sequence (Q5VT25 whole entry)": "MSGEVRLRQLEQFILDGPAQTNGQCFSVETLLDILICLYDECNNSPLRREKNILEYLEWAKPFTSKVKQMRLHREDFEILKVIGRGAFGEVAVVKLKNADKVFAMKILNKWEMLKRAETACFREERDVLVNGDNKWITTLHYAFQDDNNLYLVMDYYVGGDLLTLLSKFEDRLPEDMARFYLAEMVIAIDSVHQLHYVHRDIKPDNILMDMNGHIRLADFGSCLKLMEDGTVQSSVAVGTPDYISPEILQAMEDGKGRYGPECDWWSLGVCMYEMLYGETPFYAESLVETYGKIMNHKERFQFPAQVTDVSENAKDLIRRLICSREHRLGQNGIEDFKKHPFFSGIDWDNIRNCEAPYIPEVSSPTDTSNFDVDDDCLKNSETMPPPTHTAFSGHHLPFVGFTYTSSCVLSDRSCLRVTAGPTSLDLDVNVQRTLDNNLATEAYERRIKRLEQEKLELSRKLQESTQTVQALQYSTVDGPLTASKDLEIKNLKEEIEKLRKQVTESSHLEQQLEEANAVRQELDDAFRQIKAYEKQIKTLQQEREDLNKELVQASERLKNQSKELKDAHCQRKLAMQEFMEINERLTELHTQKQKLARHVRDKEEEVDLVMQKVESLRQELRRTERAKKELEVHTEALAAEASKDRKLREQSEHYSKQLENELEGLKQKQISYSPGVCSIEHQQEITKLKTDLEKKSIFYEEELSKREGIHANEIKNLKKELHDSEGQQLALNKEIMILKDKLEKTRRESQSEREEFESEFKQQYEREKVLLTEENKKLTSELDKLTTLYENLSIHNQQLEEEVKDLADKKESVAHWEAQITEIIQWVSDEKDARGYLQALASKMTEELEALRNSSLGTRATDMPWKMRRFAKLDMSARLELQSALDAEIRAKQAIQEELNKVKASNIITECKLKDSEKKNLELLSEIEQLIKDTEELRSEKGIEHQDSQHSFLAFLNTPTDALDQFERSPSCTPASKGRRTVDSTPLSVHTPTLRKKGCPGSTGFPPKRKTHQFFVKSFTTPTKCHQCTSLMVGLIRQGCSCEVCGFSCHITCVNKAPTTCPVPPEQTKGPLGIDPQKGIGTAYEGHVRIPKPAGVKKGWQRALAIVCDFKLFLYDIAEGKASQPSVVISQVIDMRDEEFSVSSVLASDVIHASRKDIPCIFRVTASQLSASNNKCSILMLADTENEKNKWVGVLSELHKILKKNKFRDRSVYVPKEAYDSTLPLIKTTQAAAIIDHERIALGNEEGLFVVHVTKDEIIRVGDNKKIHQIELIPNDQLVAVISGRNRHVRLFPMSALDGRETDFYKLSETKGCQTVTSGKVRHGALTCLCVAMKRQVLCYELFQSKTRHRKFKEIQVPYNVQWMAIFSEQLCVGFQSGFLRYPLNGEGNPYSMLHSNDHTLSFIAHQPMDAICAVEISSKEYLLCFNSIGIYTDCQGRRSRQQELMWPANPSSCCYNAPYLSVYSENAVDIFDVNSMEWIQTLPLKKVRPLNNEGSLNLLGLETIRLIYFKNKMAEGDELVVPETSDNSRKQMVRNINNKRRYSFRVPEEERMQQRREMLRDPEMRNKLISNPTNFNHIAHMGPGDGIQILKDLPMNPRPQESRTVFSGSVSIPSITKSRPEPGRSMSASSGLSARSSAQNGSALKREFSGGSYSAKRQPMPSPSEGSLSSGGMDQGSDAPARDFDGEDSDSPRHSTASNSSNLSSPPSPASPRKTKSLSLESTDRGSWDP", "method_in_brief": "as §1"}, "[17]": {"target": "T17, MST1R (Homo sapiens, UniProt Q04912)", "T17 construct": "host or cells: T7 phage in E. coli host derived from BL21", "T17 sequence (Q04912 25-1400)": "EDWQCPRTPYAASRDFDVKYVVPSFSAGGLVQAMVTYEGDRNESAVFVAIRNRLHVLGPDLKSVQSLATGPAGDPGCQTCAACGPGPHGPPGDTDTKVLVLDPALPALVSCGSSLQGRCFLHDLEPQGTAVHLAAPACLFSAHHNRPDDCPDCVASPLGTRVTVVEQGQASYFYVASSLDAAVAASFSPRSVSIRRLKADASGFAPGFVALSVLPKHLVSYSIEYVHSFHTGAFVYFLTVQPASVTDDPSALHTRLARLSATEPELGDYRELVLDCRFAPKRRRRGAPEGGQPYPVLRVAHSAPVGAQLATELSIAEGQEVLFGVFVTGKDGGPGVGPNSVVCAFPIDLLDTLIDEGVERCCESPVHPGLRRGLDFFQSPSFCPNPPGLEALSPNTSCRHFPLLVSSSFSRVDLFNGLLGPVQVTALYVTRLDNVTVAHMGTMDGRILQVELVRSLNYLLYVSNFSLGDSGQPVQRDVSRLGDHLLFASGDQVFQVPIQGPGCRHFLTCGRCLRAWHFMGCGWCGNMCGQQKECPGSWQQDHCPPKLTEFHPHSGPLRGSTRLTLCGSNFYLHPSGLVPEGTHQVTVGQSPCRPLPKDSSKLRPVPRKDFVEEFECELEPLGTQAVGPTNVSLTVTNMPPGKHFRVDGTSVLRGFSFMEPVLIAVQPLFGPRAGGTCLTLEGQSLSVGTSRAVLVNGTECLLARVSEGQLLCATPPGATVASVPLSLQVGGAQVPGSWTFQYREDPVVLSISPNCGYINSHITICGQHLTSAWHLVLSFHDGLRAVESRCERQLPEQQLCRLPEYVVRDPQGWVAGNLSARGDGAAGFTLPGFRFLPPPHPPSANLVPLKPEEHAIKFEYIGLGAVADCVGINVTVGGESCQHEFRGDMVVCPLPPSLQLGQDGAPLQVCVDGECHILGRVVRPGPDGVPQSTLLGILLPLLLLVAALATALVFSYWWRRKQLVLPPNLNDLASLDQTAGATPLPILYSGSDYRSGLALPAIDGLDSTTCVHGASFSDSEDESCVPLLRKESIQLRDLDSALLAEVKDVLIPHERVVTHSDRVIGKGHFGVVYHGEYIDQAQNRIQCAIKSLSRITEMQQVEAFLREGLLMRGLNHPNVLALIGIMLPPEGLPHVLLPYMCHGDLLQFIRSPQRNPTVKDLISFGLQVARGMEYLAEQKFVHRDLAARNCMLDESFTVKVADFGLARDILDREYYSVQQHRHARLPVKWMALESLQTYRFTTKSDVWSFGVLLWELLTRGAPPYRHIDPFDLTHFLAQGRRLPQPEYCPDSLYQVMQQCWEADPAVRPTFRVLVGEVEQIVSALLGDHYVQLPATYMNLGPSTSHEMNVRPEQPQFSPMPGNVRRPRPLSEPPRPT", "method_in_brief": "as §1"}, "[18]": {"target": "T18, MST3 (Homo sapiens, UniProt Q9Y6E0)", "T18 construct": "host or cells: T7 phage in E. coli host derived from BL21", "method_in_brief": "as §1"}, "[19]": {"target": "T19, PIK3CG (Homo sapiens, UniProt P48736)", "T19 construct": "purchased Ambit Biosciences Corp (KinomeScan); host or cells: E. coli host derived from BL21, infected with T7 phage", "method_in_brief": "as §1"}, "[20]": {"target": "T20, RIOK3 (Homo sapiens, UniProt O14730)", "T20 construct": "host or cells: E. coli host derived from BL21, T7 phage lysate", "T20 sequence (O14730 whole entry)": "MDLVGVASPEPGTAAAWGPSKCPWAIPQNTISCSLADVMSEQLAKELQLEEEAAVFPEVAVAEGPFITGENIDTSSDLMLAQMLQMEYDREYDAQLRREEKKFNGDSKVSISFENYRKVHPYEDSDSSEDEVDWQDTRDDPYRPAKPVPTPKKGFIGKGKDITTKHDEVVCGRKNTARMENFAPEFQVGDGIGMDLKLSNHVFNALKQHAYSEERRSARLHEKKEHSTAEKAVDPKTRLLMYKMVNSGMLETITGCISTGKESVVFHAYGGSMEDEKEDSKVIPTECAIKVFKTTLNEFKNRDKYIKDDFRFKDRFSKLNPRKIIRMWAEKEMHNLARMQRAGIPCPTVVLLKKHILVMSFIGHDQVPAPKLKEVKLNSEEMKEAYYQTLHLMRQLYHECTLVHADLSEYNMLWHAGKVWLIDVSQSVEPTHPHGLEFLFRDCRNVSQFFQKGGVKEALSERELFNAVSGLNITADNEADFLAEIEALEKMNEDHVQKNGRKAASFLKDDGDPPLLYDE", "method_in_brief": "as §1"}, "[21]": {"target": "T21, STK16 (Homo sapiens, UniProt O75716)", "T21 construct": "host or cells: E. coli host derived from the BL21 strain, T7 phage lysate", "T21 sequence (O75716 whole entry)": "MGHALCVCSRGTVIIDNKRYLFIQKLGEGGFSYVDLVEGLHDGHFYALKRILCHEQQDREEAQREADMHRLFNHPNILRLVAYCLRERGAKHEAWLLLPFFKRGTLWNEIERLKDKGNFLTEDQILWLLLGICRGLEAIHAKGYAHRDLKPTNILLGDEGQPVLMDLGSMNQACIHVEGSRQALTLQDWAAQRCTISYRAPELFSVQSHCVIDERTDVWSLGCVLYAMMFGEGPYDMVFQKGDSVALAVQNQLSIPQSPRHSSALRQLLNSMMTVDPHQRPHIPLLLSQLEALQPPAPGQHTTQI", "method_in_brief": "as §1"}, "[22]": {"target": "T22, TSSK1B (Homo sapiens, UniProt Q9BXA7)", "T22 construct": "purchased Ambit Biosciences Corp (KinomeScan); host or cells: E. coli host derived from the BL21 strain (T7 phage lysate)", "method_in_brief": "as §1"}}, "data": [{"compound": "C#Cc1cccc(Nc2ncnc3cc(OC)c(OCCCN4CCOCC4)cc23)c1", "note": "[NRC-2694, N-(3-ethylnylphenyl)-7-methoxy-6-[3-(4-morpholinyl)propoxy]-4-quinazolinamine]", "values": [{"measurement": "% Ctrl @ 10000 nM", "setting": "[1]", "result": 38, "unit": "% Ctrl"}, {"measurement": "% Ctrl @ 10000 nM", "setting": "[2]", "result": 34, "unit": "% Ctrl"}, {"measurement": "% Ctrl @ 10000 nM", "setting": "[3]", "result": 63, "unit": "% Ctrl"}, {"measurement": "% Ctrl @ 10000 nM", "setting": "[4]", "result": 73, "unit": "% Ctrl"}, {"measurement": "% Ctrl @ 10000 nM", "setting": "[5]", "result": 47, "unit": "% Ctrl"}, {"measurement": "% Ctrl @ 10000 nM", "setting": "[6]", "result": 100, "unit": "% Ctrl"}, {"measurement": "% Ctrl @ 10000 nM", "setting": "[7]", "result": 73, "unit": "% Ctrl"}, {"measurement": "% Ctrl @ 10000 nM", "setting": "[8]", "result": 31, "unit": "% Ctrl"}, {"measurement": "% Ctrl @ 10000 nM", "setting": "[9]", "result": 31, "unit": "% Ctrl"}, {"measurement": "% Ctrl @ 10000 nM", "setting": "[10]", "result": 3.7, "unit": "% Ctrl"}, {"measurement": "% Ctrl @ 10000 nM", "setting": "[11]", "result": 75, "unit": "% Ctrl"}, {"measurement": "% Ctrl @ 10000 nM", "setting": "[12]", "result": 25, "unit": "% Ctrl"}, {"measurement": "% Ctrl @ 10000 nM", "setting": "[13]", "result": 15, "unit": "% Ctrl"}, {"measurement": "% Ctrl @ 10000 nM", "setting": "[14]", "result": 100, "unit": "% Ctrl"}, {"measurement": "% Ctrl @ 10000 nM", "setting": "[15]", "result": 16, "unit": "% Ctrl"}, {"measurement": "% Ctrl @ 10000 nM", "setting": "[16]", "result": 81, "unit": "% Ctrl"}, {"measurement": "% Ctrl @ 10000 nM", "setting": "[17]", "result": 94, "unit": "% Ctrl"}, {"measurement": "% Ctrl @ 10000 nM", "setting": "[18]", "result": 42, "unit": "% Ctrl"}, {"measurement": "% Ctrl @ 10000 nM", "setting": "[19]", "result": 78, "unit": "% Ctrl"}, {"measurement": "% Ctrl @ 10000 nM", "setting": "[20]", "result": 37, "unit": "% Ctrl"}, {"measurement": "% Ctrl @ 10000 nM", "setting": "[21]", "result": 100, "unit": "% Ctrl"}, {"measurement": "% Ctrl @ 10000 nM", "setting": "[22]", "result": 93, "unit": "% Ctrl"}]}]}
